# Legend:
# [1] = compound: C1=CC2=C(C=C(C(=C2N=C1)O)N=NC3=CC4=C(C=C3)C=C(C=C4)S(=O)(=O)O)S(=O)(=O)O + COc1cc2c(Oc3ccc(NC(=O)C4(C(=O)Nc5ccc(F)cc5)CC4)cc3F)ccnc2cc1OCCCN1CCOCC1 [Foretinib] (partner 0.25 µM); assay: relative viability (nuclei count vs DMSO), 5 days (fraction); higher = more cells survive
# Procedure, shortened: (§1)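 Each reported value is a median over duplicate plates. It expresses relative viability: treated-well nuclei count divided by vehicle-well nuclei count. Lung cancer cell lines in 1536-well plates were dosed by pin tool a day after seeding, alone with one drug or with a fixed anchor-drug dose plus five library-drug doses (not always all listed) in √10 steps, and nuclei were counted after 5 days.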
# AT-7519 + Tozasertib = compound: O=C(NC1CCNCC1)c1n[nH]cc1NC(=O)c1c(Cl)cccc1Cl [AT-7519] + Cc1cc(Nc2cc(N3CCN(C)CC3)nc(Sc3ccc(NC(=O)C4CC4)cc3)n2)n[nH]1 [Tozasertib] (partner 0.1 µM); assay: as above
# Procedure, shortened: as §1
Cell Line,relative viability ([1]; first compound 0.08 µM),relative viability ([1]; first compound 0.253 µM),relative viability ([1]; first compound 0.8 µM),relative viability ([1]; first compound 2.53 µM),relative viability ([1]; first compound 8 µM),relative viability (AT-7519 + Tozasertib; first compound 0.01 µM),relative viability (AT-7519 + Tozasertib; first compound 0.03162 µM),relative viability (AT-7519 + Tozasertib; first compound 0.3162 µM),relative viability (AT-7519 + Tozasertib; first compound 1 µM)
SK-MES-1,0.86,0.856,0.874,0.761,1.15,0.928,1,0.814,0.243
NCI-H1437,1.33,1.23,1.32,1.27,0.66,0.418,0.399,0.402,0.34
LU99A,0.958,0.812,0.684,0.913,0.732,0.26,0.276,0.297,0.218
HCC-827,1.12,0.955,0.995,1.05,1.08,0.399,0.403,0.447,0.645
LK-2,1.33,1.3,0.899,0.911,1.37,0.18,0.165,,0.206
HCC-366,0.927,0.92,0.891,0.964,0.851,0.0905,0.186,0.119,0.0621
BEN,0.489,0.521,0.732,0.686,0.429,0.391,0.459,0.501,0.597
NCI-H23,0.544,0.923,0.925,1.04,0.84,0.332,0.361,0.337,0.395
NCI-H1395,0.965,0.988,0.956,1.03,1,0.788,0.782,0.716,0.668
201T,1.21,1.14,1.15,1.15,1.05,1.01,1.01,0.946,0.977
NCI-H2170,1.05,0.925,0.958,0.799,0.954,0.672,0.751,0.762,0.651
NCI-H460,1.12,1.01,1.01,1.01,0.928,0.699,0.473,0.462,0.193
NCI-H661,1.12,0.989,0.981,1.08,1.04,0.378,0.352,0.392,0.314
HCC-15,1.15,0.972,0.936,1.07,0.985,0.378,0.524,0.434,0.199
ABC-1,1.19,1.02,0.915,1.27,0.374,0.199,0.155,0.189,0.195
LCLC-103H,0.87,0.852,0.684,0.749,0.747,0.489,0.408,0.511,0.432
NCI-H441,1.11,1.06,1.04,1.07,1.05,0.788,0.565,0.573,0.343
EPLC-272H,0.779,0.752,0.704,0.646,0.723,0.376,0.26,0.39,0.243

# Reference: the supplement of paper PMC10307832
